Data taken from patent publication US20230372498A1, “PLK1 SELECTIVE DEGRADATION INDUCING COMPOUND” (UPPTHERA, priority 2020, published 2023).

Molecular target: T1, PLK1 (Homo sapiens, UniProt P53350)
T1 construct: endogenous in cells; host or cells: HeLa
Experiment: PLK1 protein degradation in HeLa cells, Western blotting (PLK1/GAPDH ratio)
Format: cell-based
Conditions: 6 hours compound incubation; for DC50: measured only if the grade of Dmax is A or B; for Dmax: thymidine block and release, 10 points three-fold from 3 μM, PLK1 to GAPDH ratio, read-out: Dmax
Method in brief: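 PLK1 level measured by Western blot as PLK1/GAPDH in HeLa lysates (15 μg protein per lane). Cells were blocked with 2 mM thymidine 24 h, released 4 h, and exposed 6 h to compound, 10 concentrations, 3-fold steps, top 3 μM.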

T1 sequence (P53350 whole entry): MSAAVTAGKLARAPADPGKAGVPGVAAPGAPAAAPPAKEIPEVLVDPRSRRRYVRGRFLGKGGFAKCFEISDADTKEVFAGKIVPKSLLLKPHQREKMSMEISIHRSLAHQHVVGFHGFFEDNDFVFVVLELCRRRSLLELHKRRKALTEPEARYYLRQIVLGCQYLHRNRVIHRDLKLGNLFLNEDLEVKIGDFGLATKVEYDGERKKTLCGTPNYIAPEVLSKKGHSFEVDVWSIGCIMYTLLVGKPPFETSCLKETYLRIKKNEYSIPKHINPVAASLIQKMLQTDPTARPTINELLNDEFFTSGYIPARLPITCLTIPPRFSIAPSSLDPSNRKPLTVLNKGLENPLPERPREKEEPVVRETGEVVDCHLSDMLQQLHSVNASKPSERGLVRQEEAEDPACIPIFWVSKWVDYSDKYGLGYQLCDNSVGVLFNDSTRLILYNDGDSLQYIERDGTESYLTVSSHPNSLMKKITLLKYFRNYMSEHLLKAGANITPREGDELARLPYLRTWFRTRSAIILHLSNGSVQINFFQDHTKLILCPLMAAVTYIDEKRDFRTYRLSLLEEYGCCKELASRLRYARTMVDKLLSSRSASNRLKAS

Compound	DC50 [nM]	Dmax [%]
COc1cc(C(=O)N[C@H]2CCN(C(=O)CCC(=O)N3CCN(c4cccc5c4C(=O)N(C4CCC(=O)NC4=O)C5=O)CC3)C2)ccc1Nc1ncc2c(n1)N(C1CCCC1)CC(F)(F)C(=O)N2C (stereo partly drawn) [Compound 141, 4-((9-cyclopentyl-7,7-difluoro-5-methyl-6-oxo-6,7,8,9-tetrahydro-5H-pyrimido[4,5-b][1,4]diazepin-2-yl)amino)-N-((3S)-1-(4-(4-(2-(2,6-dioxopiperidin-3-yl)-1,3-dioxoisoindolin-4-yl)piperazin-1-yl)-4-oxobutanoyl)pyrrolidin-3-yl)-3-methoxybenzamide]	≤ 50	≥ 80
CN1C(=O)C(F)(F)CN(C2CCCC2)c2nc(Nc3ccc(C(=O)N[C@H]4CCN(C(=O)CCC(=O)N5CCN(c6cccc7c6C(=O)N(C6CCC(=O)NC6=O)C7=O)CC5)C4)cc3)ncc21 (stereo partly drawn) [Compound 142, 4-((9-cyclopentyl-7,7-difluoro-5-methyl-6-oxo-6,7,8,9-tetrahydro-5H-pyrimido[4,5-b][1,4]diazepin-2-yl)amino)-N-((3S)-1-(4-(4-(2-(2,6-dioxopiperidin-3-yl)-1,3-dioxoisoindolin-4-yl)piperazin-1-yl)-4-oxobutanoyl)pyrrolidin-3-yl)benzamide]	≤ 500	60 to 80
COc1cc(C(=O)N[C@H]2CCN(C(=O)CCCC(=O)N3CCN(c4cccc5c4C(=O)N(C4CCC(=O)NC4=O)C5=O)CC3)C2)c(F)cc1Nc1ncc2c(n1)N(C1CCCC1)CC(F)(F)C(=O)N2C (stereo partly drawn) [Compound 143, 4-((9-cyclopentyl-7,7-difluoro-5-methyl-6-oxo-6,7,8,9-tetrahydro-5H-pyrimido[4,5-b][1,4]diazepin-2-yl)amino)-N-((3S)-1-(5-(4-(2-(2,6-dioxopiperidin-3-yl)-1,3-dioxoisoindolin-4-yl)piperazin-1-yl)-5-oxopentanoyl)pyrrolidin-3-yl)-2-fluoro-5-methoxybenzamide]	≤ 500	60 to 80
COc1cc(C(=O)N[C@H]2CCN(C(=O)CCC(=O)N3CCN(c4ccc5c(c4)C(=O)N(C4CCC(=O)NC4=O)C5=O)CC3)C2)c(F)cc1Nc1ncc2c(n1)N(C1CCCC1)CC(F)(F)C(=O)N2C (stereo partly drawn) [Compound 144, 4-((9-cyclopentyl-7,7-difluoro-5-methyl-6-oxo-6,7,8,9-tetrahydro-5H-pyrimido[4,5-b][1,4]diazepin-2-yl)amino)-N-((3S)-1-(4-(4-(2-(2,6-dioxopiperidin-3-yl)-1,3-dioxoisoindolin-5-yl)piperazin-1-yl)-4-oxobutanoyl)pyrrolidin-3-yl)-2-fluoro-5-methoxybenzamide]	≤ 50	≥ 80

Other lines, results leading:

DC50 [nM]	Dmax [%]	Compound
≤ 50	≥ 80	COc1cc(C(=O)N[C@@H]2CCN(C(=O)CCCCN3CCN(c4ccc5c(c4)C(=O)N(C4CCC(=O)NC4=O)C5=O)CC3)C2)c(F)cc1Nc1ncc2c(n1)N(C1CCCC1)CC(F)(F)C(=O)N2C (stereo partly drawn) [Compound 139, 4-((9-cyclopentyl-7,7-difluoro-5-methyl-6-oxo-6,7,8,9-tetrahydro-5H-pyrimido[4,5-b][1,4]diazepin-2-yl)amino)-N-((3R)-1-(5-(4-(2-(2,6-dioxopiperidin-3-yl)-1,3-dioxoisoindolin-5-yl)piperazin-1-yl)pentanoyl)pyrrolidin-3-yl)-2-fluoro-5-methoxybenzamide]
≤ 50	≥ 80	COc1cc(C(=O)N[C@H]2CCN(C(=O)CCC(=O)N3CCN(c4cccc5c4C(=O)N(C4CCC(=O)NC4=O)C5=O)CC3)C2)c(F)cc1Nc1ncc2c(n1)N(C1CCCC1)CC(F)(F)C(=O)N2C (stereo partly drawn) [Compound 140, 4-((9-cyclopentyl-7,7-difluoro-5-methyl-6-oxo-6,7,8,9-tetrahydro-5H-pyrimido[4,5-b][1,4]diazepin-2-yl)amino)-N-((3S)-1-(4-(4-(2-(2,6-dioxopiperidin-3-yl)-1,3-dioxoisoindolin-4-yl)piperazin-1-yl)-4-oxobutanoyl)pyrrolidin-3-yl)-2-fluoro-5-methoxybenzamide]
